Test results as given in US20180318199A1, “Pharmaceutical Composition Having Anti-Aging Properties against High-Glucose” (TAIWAN LEADER BIOTECH CORP., priority 2017, published 2018).

What was measured:
Format in all cases: cell-based, human
HNDFs [1] = assay: Cell-cycle distribution by flow cytometry (PI) in HNDFs; settings: ANM 10 μM or NAC 100 μM + HG 30 mM, 72 h; HG 71.2%, NG 46.5%
Protocol: Senescence is well-defined as an irreversible arrest in the G0/G1 phase of the cell-cycle, triggered by various physiological and chemical stimuli including HG. It is thus paradoxical that HG-induced senescence is associated with cell-cycle arrest. Please refer to FIG. 3A˜FIG. 3C, which are views showing HG-induced growth arrest blocked by ANM in HNDFs. As shown in the figures, to further explore this paradoxical relationship, HNDFs are treated with HG and ANM or N-acetylcysteine (NAC). In FIG. 3A, HNDFs are incubated with ANM (10 μM) or NAC (100 μM) in the presence of HG (30 mM) for 72 h. Cell-cycle distribution is measured by flow cytometer using PI. Percentage of cell population in each transition phase is shown in a histogram view.
HNDFs at a density of 5×10^5 cells in 10 cm dishes are treated with ANM or NAC in the presence or absence of HG for 72 h. Cells are collected, washed with PBS and fixed in 95% cold-ethanol, and kept at −20° C. overnight. The cell pellet is then washed again with PBS and centrifuged at 1500×g for 5 min. The pellet is re-suspended in 1 mL PI/Triton X-100 (20 μg/mL PI, 0.1% Triton X-100 and 0.2 mg/mL RNAse) and incubated on ice for 30 min. The total cellular DNA content is analyzed with a flow cytometer (Beckman Coulter FC500). Data are acquired and analyzed using CXP software (Beckman Coulter).

p53 and FoxO1 = assay: Western blot of p53 and FoxO1 acetylation/phosphorylation in HNDFs; settings: for HG-induced p53 phosphorylation at Ser15: ANM 10 μM or NAC 100 μM + HG 30 mM; for total p53 and FoxO1 levels: HNDFs, with or without HG; for protection against HG-induced decrease in FoxO1 phosphorylation: co-treatment with HG 30 mM
Protocol: It is well known that p16^INK4A and p21^CIP1 are regulated by transcription factors p53 and FoxO1 followed by acetylation. […] In addition, p53 phosphorylation at Ser15 by their upstream kinases promotes transcriptional activation in response to DNA damage.
To further examine the phenomenon that HG-induced p53 activation is relayed by the p38 MAPK or JNK/SAPK cascade, cells are incubated with corresponding pharmacological inhibitors, SB203580, SP600125, PD98059 and LY294002 for p38MAPK, JNK/SAPK, ERK1/2 and P13K/AKT, respectively in the presence of HG.
The protein expression levels of SIRT-1, SIRT-6, p21^CIP1, SMP30, p53, FoxO and acetylation of p53 and FoxO1 are determined by western blot analysis.
Cells are lysed by either RIPA lysis buffer or nuclear and cytoplasmic extraction reagents (Thermo Fisher Scientific). Protein concentrations are determined by Bio-Rad protein assay reagent (Bio-Rad Laboratories, Hercules, Calif.). Equal amounts of protein samples (60 μg) are separated by 7-12% SDS-PAGE and the separated proteins are transferred onto polyvinylidene […] (PVDC) membrane overnight. The transferred protein membranes are blocked with 5% non-fat dried milk for 30 min, followed by incubation with specific primary antibodies overnight, and either horseradish peroxidase-conjugated goat anti-rabbit or anti-mouse antibodies for 2 h. The blots are detected using VL Chemi-Smart 3000 (Viogene Biotek, Sunnyvale, Calif.) with the enhanced chemiluminescence (ECL) western blotting reagent (Millipore, Billerica, Mass.).

HNDFs [2] = assay: Intracellular ROS by flow cytometry (DCFH-DA) in HNDFs; settings: 24 h; for intracellular ROS generation: ANM 10 μM or NAC 100 μM + HG 30 mM, HG alone 426.2%; for ROS generation, compound alone: ANM 10 μM or NAC 100 μM without HG
Protocol: Next, please refer to FIG. 4A˜FIG. 4H, which are views showing HG-induced senescence inhibited by ANM in HNDFs. As shown in the figures, it is examined whether ANM inhibits HG-induced ROS generation. In FIG. 4A, HNDFs are incubated with ANM (10 μM) or NAC (100 μM) either in the presence or absence of HG (30 mM) for 24 h. The intracellular ROS level is determined by flow cytometry using DCH-DA flurogenic probe. […] As is shown, HNDFs are co-incubated with HG and ANM or NAC for 24 h, and intracellular ROS levels are measured by flow cytometry.
Moreover, in FIG. 6B, HNDFs are transfected with specific siRNA against Nrf2 or control siRNA. […] Intracellular ROS is measured by DCFH-DA assay.
Intracellular ROS accumulation is determined using the dye DCFH2-DA following a procedure described earlier. Briefly, HNDFs (1×10^5 cells/well) are seeded in 6-well plates and incubated with HG in the presence or absence of test samples for 24 h. At the end of the incubation, the culture supernatant is removed and cells are washed twice with PBS. DCFH2-DA […] is mixed with 500 μL MEM and added to the culture plate. After incubation for 30 minutes, cells are collected by trypsin and the fluorescence shift is quantified using a flow cytometer (Beckman Coulter). Data are acquired and analyzed using CXP software (Beckman Coulter).

SMP30 = SMP30 immunofluorescence in HNDFs; settings: ANM 10 μM or NAC 100 μM + HG 30 mM, 72 h
Protocol: In FIG. 4C, SMP30 expression provided by ANM is examined. HNDFs are incubated with ANM (10 μM) or NAC (100 μM) in the presence or absence of HG (30 mM) for 72 h. The protein expression of SMP30 is measured by immunofluorescence using SMP30 specific primary antibody and fluorescein isothiocyanate-conjugated secondary antibody (green). The cellular localization of SMP30 is photographed using a fluorescence microscope. 4′,6-diamidino-2-phenylindole (DAPI) (1 μM) is used to stain the nucleus.
HNDFs at a density of 1×10^4 cells/well are cultured in an eight-well glass Nunc Lab-Tek chamber (ThermoFisher Scientific, Waltham, Mass.). Cells are treated with ANM or NAC in the presence or absence of HG for 2-72 h. After incubation, culture medium is removed and cells are fixed in 4% paraformaldehyde for 15 min, permeabilized with 0.1% Triton X-100 for 10 min, washed and blocked with 10% FBS in PBS, and then incubated overnight with the corresponding primary antibodies in 1.5% FBS. The cells are then incubated with the fluorescein isothiocyanate (FITC)-conjugated secondary antibody (Alexa fluor 488, ThermoFisher Scientific) for another 1 h in 6% bovine serum albumin (BSA). Next, the cells are stained with 1 μg/mL 4′,6-diamidino-2-phenylindole (DAPI, Cell Signaling Technology) for 5 min, washed with PBS, and visualized using a fluorescence microscope (Motic Electric Group) at 40× magnification.

CC(=O)N[C@@H](CS)C(=O)O [NAC, N-acetylcysteine, reference compound]
cell population in the G0/G1 phase (HNDFs [1]): partially blocks
HG-induced p53 phosphorylation at Ser15 (p53 and FoxO1): significantly blocked
total p53 and FoxO1 levels (p53 and FoxO1): neither ANM nor NAC affected
protection against HG-induced decrease in FoxO1 phosphorylation (p53 and FoxO1): fails to protect
intracellular ROS generation (HNDFs [2]): 176.58%
ROS generation, compound alone (HNDFs [2]): does not significantly increase
HG-induced reduction in SMP30 (immunofluorescence) (SMP30): partially prevented

C=C(CCC(C)C1CCC2C3=C(C(=O)C(O)C21C)C1(C)CCC(O)C(C)C1CC3)C(C)C(=O)O (stereo not shown) [ANM, antcin M]
cell population in the G0/G1 phase (HNDFs [1]): 49.5%
HG-induced p53 and FoxO1 acetylation (p53 and FoxO1; ANM 10 μM + HG 30 mM, 72 h): barely observed
HG-induced p21^CIP1 expression and acetylation in p53 and FoxO1, control siRNA cells (p53 and FoxO1; ANM 10 μM + HG, 72 h): significantly attenuated
p21^CIP1 expression, p53/FoxO1 deacetylation, SMP30 upregulation in SIRT-1 silenced cells (p53 and FoxO1; ANM 10 μM + HG, 72 h, siSIRT-1): fails to inhibit
HG-induced p53 phosphorylation at Ser15 (p53 and FoxO1): significantly blocked
total p53 and FoxO1 levels (p53 and FoxO1): neither ANM nor NAC affected
protection against HG-induced decrease in FoxO1 phosphorylation (p53 and FoxO1): fails to protect
HG-induced ROS generation, scrambled siRNA cells (HNDFs [2]; ANM 10 μM + HG): significantly inhibits
ROS generation, siNrf2 transfected cells (HNDFs [2]; ANM 10 μM + HG): increased ROS generation
intracellular ROS generation (HNDFs [2]): 200.8%
ROS generation, compound alone (HNDFs [2]): does not significantly increase
HG-induced reduction in SMP30 (immunofluorescence) (SMP30): significantly prevented
